Assay results reported in patent EP0297159A1, “[N-Acyl, 1,7-Di-Aline] calcitonins, method for their preparation, pharmaceutical compositions and use” (Armour Pharmaceutical Company, priority 1987, dated 1989).
Where a SMILES comes first, the peptide text is derived from it. The star is where a group is joined. Propionyl = CCC(=O)*

Tested on: serum calcium concentration
Details: rat, in vivo, sc
Procedure: Rats were divided into four groups of seven animals, and each group was assigned at random to a dose of standard or test solution. Low and high doses were chosen from the linear portion of the dose-response curve. For the salmon calcitonin standard, the values were 0.7 and 2.1 mcg. peptide/100 g. body weight (BW). This dose approximates 3 and 9 MU/100 g. BW. Peptides were given by subcutaneous injection (0.2 ml./100 g. BW) and blood was withdrawn 1 hour later for serum calcium determination. Sera are processed and analyzed within two hours of collection.

CCC(=O)N[C@@H](C)C(=O)N[C@@H](CO)C(=O)N[C@@H](CC(N)=O)C(=O)N[C@@H](CC(C)C)C(=O)N[C@@H](CO)C(=O)N[C@H](C(=O)N[C@@H](C)C(=O)N[C@H](C(=O)N[C@@H](CC(C)C)C(=O)NCC(=O)N[C@@H](CCCCN)C(=O)N[C@@H](CC(C)C)C(=O)N[C@@H](CO)C(=O)N[C@@H](CCC(N)=O)C(=O)N[C@@H](CCC(=O)O)C(=O)N[C@@H](CC(C)C)C(=O)N[C@@H](Cc1c[nH]cn1)C(=O)N[C@@H](CCCCN)C(=O)N[C@@H](CC(C)C)C(=O)N[C@@H](CCC(N)=O)C(=O)N[C@H](C(=O)N[C@@H](Cc1ccc(O)cc1)C(=O)N1CCC[C@H]1C(=O)N[C@@H](CCCNC(=N)N)C(=O)N[C@H](C(=O)N[C@@H](CC(N)=O)C(=O)N[C@H](C(=O)NCC(=O)N[C@@H](CO)C(=O)NCC(=O)N[C@H](C(=O)N1CCC[C@H]1C(N)=O)[C@@H](C)O)[C@@H](C)O)[C@@H](C)O)[C@@H](C)O)C(C)C)[C@@H](C)O [[N^α-Propionyl-Di-Ala^1,7]SCT, [N^α-Propionyl, 1,7-Di-Alanine]salmon calcitonin] (Propionyl-ASNLSTAVLGKLSQELHKLQTYPRTNTGSGTP-NH2)
biological potency: 5450 IU/mg
